Paper PMC9732821, “Neurotrophic Activity and Its Modulation by Zinc Ion of a Dimeric Peptide Mimicking the Brain-Derived Neurotrophic Factor N-Terminal Region” (ACS Chemical Neuroscience, 2022)

Tested on: SH-SY5Y cells
Experiment: MTS cell viability assay, RA-differentiated SH-SY5Y cells
Format: cell-based, human
Settings: three days
Description: one-way ANOVA with Dunnett’s multiple comparison test , # p<0.05 versus BDNF, according to one-way ANOVA with Sidak’s multiple comparison test).
Figure S 2. MT S assay for BDNF and its mimetic peptides. Cell viability assay of RA - differentiated SH -SY5Y cells treated for three days with 150 ng/ml BDNF of with different concentrations of m-, d- or s-bdnf peptides (M, D and S, respectively). ** p<0.01, *p<0.05, according to one-way ANOVA with Dunnett’s multiple comparison test).
(1 picture or pasted object on this page, not shown here) […]
incubated for 3 days in serum-free DMEM-F12 (morphometric ctrl). […]
SH-SY5Y were seeded at a density of 3.000 cell/well in 96 multiwell and differentiated as describe above. The viability of differentiated cells, in response to the various treatments, was assessed using an MTS assay (CellTiter 96 AQueous One Solution Cell Proliferation Assay kit; Promega) according to the manufacturer’s instructions. The absorbance of formazan at 490 nm was measured in a colorimetric assay with the EnSightTM multimode plate reader (Perkin Elmer). […]
TrkB phosphorylation was monitored after TrkB-eGFP construct immunoprecipitation, similarly to what previously reported for TrkA phosphorylation 3. […]

Substance | cell viability (toxicity) (lower doses of m-bdnf) | cell viability (5–10 μM d-bdnf)
HSDPARRGELSV-NH2 [m-bdnf, linear peptide fragment encompassing the first 12 amino acids of the mature NT N-terminal] | some toxicity | –
HSDPARRGELSVC-C-VSLEGRRAPDSH (disulfide) [d-bdnf] | – | no reduced vitality of the culture
